Broadly, the IC50 is the concentration at which inhibition is half-maximal.

Assay [1] is described as follows: Ability to inhibit formation of the TatTAR complex by binding to the closing GC or CG base pair and adjacent nucleotides of loops in the TAR RNA.
In assay [2] the test system is Nucleic Acid. As to the kind of experiment: Ability to inhibit the formation of the U1A-stem loop 2 RNA complex using gel mobility shift assay. It is filed as nucleic-acid assay.
The test system of assay [3] is Nucleic Acid. As to the kind of experiment: Ability to inhibit the […]-RNA complex formation. It is filed as nucleic-acid assay.

`Nc1nc(N)c2c(N)c(N)ccc2n1`: the results for the IC50 (in assay [1]; in the assay on Nucleic Acid [2]) were 10 µM and 10000 µM, respectively.
With `COc1ccc2nc3cc(Cl)ccc3c(NCCCN(CCCN)CCCCN)c2c1`, the IC50 turned out to be 22 µM in assay [1], 1 µM in the assay on Nucleic Acid [3] and 1 µM with Nucleic Acid [2].

The record behind these values is ChEMBL document CHEMBL1135200, “Inhibition of the U1A-RNA complex by an aminoacridine derivative” (Bioorg Med Chem Lett, 2002).
